Consider 5 compounds from patent publication US20260272854A1, “PHARMACEUTICAL AGENT, MEDICINAL SOLUTION FOR CLEANING PULMONARY ALVEOLI, AND NEBULIZER” (priority 2019, published 2026).

Data set [1] is described as follows: Surface tension of a hanging droplet, Young-Laplace method (curve fitting). The format is physicochemical. The note with it: for surface tension, polyamine alone: 0-10000 msec; for surface tension reduction effect, polyamine alone: without surfactant; for surface tension in 0.3 mg/ml bovine lung surfactant: 1 mM of polyamine, 10 seconds after production of hanging droplet. The procedure: Surface tension was measured by the Young-Laplace method (curve fitting) using a contact angle meter (B100, manufactured by Asumi Giken, Limited), on a droplet formed at the tip of a 20-gauge straight needle.
Tensiometer: contact angle meter (B100, manufactured by Asumi Giken, Limited)
Surface tension measurement method: Young-Laplace method (curve fitting)
Hanging droplet production method: a maximum size of droplet not to drop was produced at the tip of a 20-gauge straight needle (an autodispenser was used)
Imaging of hanging droplet: imaging was performed using a CCD camera
Bovine lung surfactant: a commercially available bovine lung extract artificial surfactant (Surfacten (trade name), manufactured by Mitsubishi Tanabe Pharma Corporation) was adjusted to a concentration of 30 mg/ml using physiological saline according to the package insert. […] In the drawings, the formulated surfactant solution is indicated by “30 mg/ml surf.”
10-fold diluted bovine lung surfactant: a commercially available bovine lung extract artificial surfactant (Surfacten (trade name), manufactured by Mitsubishi Tanabe Pharma Corporation) was adjusted to a concentration of 3 mg/ml using physiological saline. In the drawings, the formulated surfactant solution is indicated by “3 mg/ml surf.”
100-fold diluted bovine lung surfactant: a commercially available bovine lung extract artificial surfactant (Surfacten (trade name), manufactured by Mitsubishi Tanabe Pharma Corporation) was adjusted to a concentration of 0.3 mg/ml using physiological saline. Pulmonary surfactant was diluted with physiological saline, i.e., the resultant solution mimics the state of surfactant in a lung affected by ARDS. In the drawings, the formulated surfactant solution is indicated by “100-fold diluted bovine lung surfactant,” “0.3-mg/ml bovine lung surfactant,” “0.3 mg/ml surf,” or “ 1/100 Surf.”
1000-fold diluted bovine lung surfactant: a commercially available bovine lung extract artificial surfactant (Surfacten (trade name), manufactured by Mitsubishi Tanabe Pharma Corporation) was adjusted to a concentration of 0.03 mg/ml using physiological saline. In the drawings, the formulated surfactant solution is indicated by “0.03 mg/ml surf.”
Polyamine-containing 100-fold diluted bovine lung surfactant:
The solution was formulated using a commercially available polyamine chloride. […]

In data set [2] the test system is ARDS model. Put plainly: Gas exchange dysfunction occurrence rate (P/F ratio<300) after pulmonary alveolar washing. In kind it is in vivo, rat. Here is the method:
Ventilation was conducted by inverse ratio ventilation without using PEEP. The ventilation was conducted using ambient air (inhaled oxygen concentration FiO2: 0.21) without oxygen administration. The intra-airway pressure and the partial pressure of oxygen in the arterial blood (PaO2) were measured over time. Influence of the polyamine was analyzed, where dynamic lung compliance was used as a measure of the distensibility of the lung, and the P/F ratio<300 was used as a criterion for gas exchange dysfunction. […] Influence of Spm administered to pulmonary alveoli on the rate of occurrence of gas exchange dysfunction was analyzed, where the P/F ratio<300 was used as a criterion for gas exchange dysfunction. […] Cases (death) that death occurred before the measurement times, i.e., arterial blood sampling was not conducted, were counted as the case of occurrence of gas exchange dysfunction.

A further data set has as its system lung affected by ARDS. To be noted: transairway administration of 5 mM of Spm, 20 ml/kg, 5 times, after first washing with physiological saline.
Another data set has as its system lung field. The note with it: rat d: washed with physiological saline, then physiological saline containing 5 mM of Spm; applied pressure 20 cm H2O.
Data set [3] concerns ARDS model. Description: Dynamic lung compliance after pulmonary alveolar washing, ventilated ARDS model rat. To be noted: for lung compliance after pulmonary alveolar washing: 20 ml/kg, 5 times within 2 minutes; for time it took to recover to 0.9 (lung compliance before washing set as 1.0): average. The format is in vivo. Here is the method:
When the respiratory and circulatory dynamics of the rat were stable under artificial ventilation, an injection/suction operation using 20 ml/kg of a pulmonary alveolar washing solution (physiological saline) through the tracheal cannula was conducted […] consecutively within 2 minutes. […] Thus, an ARDS model whose pulmonary alveoli were washed with physiological saline was produced. The pulmonary alveolar washing operation means production of a respiratory distress syndrome (ARDS) model having decreased lung compliance.
The above ventilation was conducted by inverse ratio ventilation without using PEEP. The ventilation was conducted using ambient air (inhaled oxygen concentration FiO2: 0.21) without oxygen administration. The intra-airway pressure and the partial pressure of oxygen in the arterial blood (PaO2) were measured over time. Influence of the polyamines was analyzed, where dynamic lung compliance (=a tidal volume/a change in intra-airway pressure) (expression 1) was used as a measure of the distensibility of the lung, and PaO2/FiO2 (P/F ratio)<300 was used as a criterion for gas exchange dysfunction.
When the respiratory and circulatory dynamics of the rat were stable under artificial ventilation, 20 ml/kg of a pulmonary alveolar washing solution (physiological saline) was injected/suctioned consecutively 5 times within 2 minutes through the tracheal cannula. […] Thus, an ARDS model whose pulmonary alveoli were washed with physiological saline was produced.
When the respiratory and circulatory dynamics of the rat were stable under artificial ventilation, 20 ml/kg of a pulmonary alveolar washing solution (physiological saline containing 0.5 mM of Spm) was injected/suctioned consecutively 5 times within 2 minutes through the tracheal cannula. […] Thus, an ARDS model whose pulmonary alveoli were washed with 0.5 mM of Spm was produced.
The above ventilation was conducted by inverse ratio ventilation without using PEEP. The ventilation was conducted using ambient air (inhaled oxygen concentration FiO2: 0.21) without oxygen administration. The intra-airway pressure and the partial pressure of oxygen in the arterial blood (PaO2) were measured over time. Influence of the polyamine was analyzed, where dynamic lung compliance was used as a measure of the distensibility of the lung, and the P/F ratio<300 was used as a criterion for gas exchange dysfunction.
When the respiratory and circulatory dynamics of the rat were stable under artificial ventilation, 20 ml/kg of a pulmonary alveolar washing solution (physiological saline containing 1 mM of Spm) was injected/suctioned consecutively 5 times within 2 minutes through the tracheal cannula. […] Thus, an ARDS model whose pulmonary alveoli were washed with 1 mM of Spm was produced.
When the respiratory and circulatory dynamics of the rat were stable under artificial ventilation, 20 ml/kg of a pulmonary alveolar washing solution (0.3 mg/ml of a bovine lung extract artificial surfactant; the bovine lung extract artificial surfactant was formulated by dissolving Surfacten (trade name), manufactured by Mitsubishi Tanabe Pharma Corporation, in physiological saline to a concentration of 0.3 mg/ml, which is 1/100 of the concentration that is normally for administration to a preterm infant) was injected/suctioned consecutively 5 times within 2 minutes through the tracheal cannula. […] Note that it was confirmed that no polyamines are detected in the bovine lung extract artificial surfactant. […]

Protocol for lung affected by ARDS: Specifically, influence of transairway administration of 5 mM of Spm to an ARDS model animal on lung compliance was analyzed.
A tracheal cannula was inserted into a rat under general anesthesia, and then euthanized. Immediately after that, artificial ventilation was conducted for 30 seconds, and lung compliance before washing that is calculated based on intra-airway pressure was set as 1.0 (“before washing” on the left slide of FIG. 10). Following this, a lung affected by ARDS was produced. Specifically, an injection/suction operation was conducted 5 times consecutively within 2 minutes using 20 ml/kg of physiological saline through the tracheal cannula. After the washing solution remaining in the tracheal cannula was suctioned out, artificial ventilation was conducted for 30 seconds, and the lung compliance of the lung affected by ARDS was calculated and compared with that of the normal lung (“first pulmonary alveolar washing” at the center of FIG. 10). […] After the washing solution remaining in the tracheal cannula was suctioned out, artificial ventilation was conducted for 30 seconds, and the lung compliance calculated based on intra-airway pressure (“second pulmonary alveolar washing” (open column) on the right side of FIG. 10) was compared with that of the lung affected by ARDS. […]
Protocol for lung field: Plain X-ray imaging and X-ray CT imaging were performed, with an air pressure (0 and 20 cm H2O) exerted through a tracheal cannula, on rats that were euthanized after pulmonary alveolar washing or rats that were subjected to pulmonary alveolar washing immediately after euthanization.
A rat a was a control that was not subjected to pulmonary alveolar washing. Specifically, a tracheal cannula was inserted into a rat under general anesthesia, and the rat was euthanized without pulmonary alveolar washing.
A rat b was subjected to pulmonary alveolar washing with physiological saline containing 1 mM of Spm. Specifically, a tracheal cannula was inserted into a rat under general anesthesia, and after the rat was euthanized, 20 ml/kg of a pulmonary alveolar washing solution (physiological saline containing 1 mM of Spm) was injected/suctioned consecutively 5 times within 2 minutes through the tracheal cannula, and the washing solution remaining in the trachea was suctioned out.
A rat c was subjected to pulmonary alveolar washing with physiological saline. Specifically, a tracheal cannula was inserted into a rat under general anesthesia. […]

Regarding `NCCCNCCCCNCCCN` [Spm, spermine], in data set [1] (0.5 mM of Spm without surfactant), the “surface tension, polyamine alone” value is on record as 64 mN/m. In addition, the “surface tension of 0.3 mg/ml surf” value in data set [1] (presence of 0.5, 1 and 2 mM of Spm) is reported as “reduced surface tension”. Moreover, the “surface tension reduction effect, polyamine alone” value in data set [1] is recorded as “does not have such a surface tension reduction effect”. The “gas exchange dysfunction occurrence rate” value is “lower than the others” in the data set with ARDS model [2] (20 minutes after washing, 1 mM of Spm); “significantly decreased” in the data set on ARDS model [2] (1 hour after washing, Spm-containing physiological saline (0.5 and 1 mM) compared to physiological saline). Besides, the “lung compliance after second pulmonary alveolar washing” value in the data set with lung affected by ARDS is reported as “improved the lung compliance”. In addition, the “CT images of lung field” value in the data set on lung field was “no wide range of infiltrative shadow was observed”. Further, in the data set with lung field, the “X-ray images of lung field” value is on record as “the cardiac shadow became clear”. Moreover, the “lung compliance after pulmonary alveolar washing” value in the data set on ARDS model [3] (physiological saline containing 0.5 mM of Spm) and in the data set with ARDS model [3] (physiological saline containing 1 mM of Spm) was “lung compliance subsequently recovered” each time. Also, the “effect of improving lung compliance, 1 mM versus 0.5 mM of Spm” value in the data set on ARDS model [3] (until 60 minutes after washing) is “higher for 1 mM of Spm”. For the same compound, the “time it took to recover to 0.9 (lung compliance before washing set as 1.0)” value in the data set on ARDS model [3] (washing with 0.5 mM of Spm) was 60 min; in the data set with ARDS model [3] (washing with 1 mM of Spm), 15 min.
For the compound `NCCCCNCCCN` [Spd, spermidine], the “surface tension reduction effect in diluted surfactant environment” value in data set [1] (Spd-containing 0.3 mg/ml bovine lung surfactant) is “has the surface tension reduction effect”. Besides, in data set [1], the “surface tension reduction effect, polyamine alone” value is on record as “does not have the surface tension reduction effect”.
`NCCCCCCN` [diaminohexane]: in data set [1], the “surface tension in 0.3 mg/ml bovine lung surfactant” value is “reduction in surface tension” and the “surface tension reduction effect, polyamine alone” value is on record as “does not have the surface tension reduction effect”. In addition, the “surface tension, polyamine alone” value in data set [1] (1 mM without surfactant) amounted to 62 mN/m.
For `NCCCCN` [Put, putrescine], in data set [1] (Put-containing 0.3 mg/ml bovine lung surfactant, 60 seconds after formation of hanging droplet), the “surface tension reduction effect in diluted surfactant environment” value was “observed on several tens of seconds after formation of a hanging droplet”. Moreover, the “surface tension reduction effect, polyamine alone” value in data set [1] is on record as “does not have the surface tension reduction effect”.
In the case of `CC(=O)NCCCNCCCCN` [N1-AcSpd, N1-acetylspermidine], in data set [1], the “surface tension in 0.3 mg/ml bovine lung surfactant” value was “reduction in surface tension” and the “surface tension reduction effect, polyamine alone” value is listed as “does not have the surface tension reduction effect”. Besides, in data set [1] (1 mM without surfactant), the “surface tension, polyamine alone” value stood at 63 mN/m.
